# Assay results: ChEMBL document CHEMBL3872244, “Synthesis, evaluation and molecular modelling studies of 2-(carbazol-3-yl)-2-oxoacetamide analogues as a new class of potential pancreatic lipase inhibitors” (Bioorg Med Chem, 2017)
# Activity calls are given as the source filed them. The calls are words filed in the database; no cut-off is given here.
# T1: Pancreatic triacylglycerol lipase (Sus scrofa) (UniProt P00591)
# T1 sequence (whole entry): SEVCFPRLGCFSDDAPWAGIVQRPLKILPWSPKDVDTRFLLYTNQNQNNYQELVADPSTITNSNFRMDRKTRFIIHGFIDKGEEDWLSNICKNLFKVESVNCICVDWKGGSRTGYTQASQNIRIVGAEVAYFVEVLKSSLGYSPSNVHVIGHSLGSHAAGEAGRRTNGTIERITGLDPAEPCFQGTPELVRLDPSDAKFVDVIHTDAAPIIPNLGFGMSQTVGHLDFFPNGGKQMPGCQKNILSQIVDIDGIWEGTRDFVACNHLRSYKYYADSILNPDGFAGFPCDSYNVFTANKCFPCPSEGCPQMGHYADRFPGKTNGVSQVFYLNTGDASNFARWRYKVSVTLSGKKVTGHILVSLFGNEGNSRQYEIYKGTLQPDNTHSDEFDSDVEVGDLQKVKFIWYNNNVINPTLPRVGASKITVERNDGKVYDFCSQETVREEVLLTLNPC
# T2: Pancreatic triacylglycerol lipase (Sus scrofa, UniProt P00591)
# T2 sequence (P00591 whole entry): T1 sequence (whole entry)
# T3: Pancreatic triacylglycerol lipase (Homo sapiens, UniProt P16233)
# T3 sequence (P16233 whole entry): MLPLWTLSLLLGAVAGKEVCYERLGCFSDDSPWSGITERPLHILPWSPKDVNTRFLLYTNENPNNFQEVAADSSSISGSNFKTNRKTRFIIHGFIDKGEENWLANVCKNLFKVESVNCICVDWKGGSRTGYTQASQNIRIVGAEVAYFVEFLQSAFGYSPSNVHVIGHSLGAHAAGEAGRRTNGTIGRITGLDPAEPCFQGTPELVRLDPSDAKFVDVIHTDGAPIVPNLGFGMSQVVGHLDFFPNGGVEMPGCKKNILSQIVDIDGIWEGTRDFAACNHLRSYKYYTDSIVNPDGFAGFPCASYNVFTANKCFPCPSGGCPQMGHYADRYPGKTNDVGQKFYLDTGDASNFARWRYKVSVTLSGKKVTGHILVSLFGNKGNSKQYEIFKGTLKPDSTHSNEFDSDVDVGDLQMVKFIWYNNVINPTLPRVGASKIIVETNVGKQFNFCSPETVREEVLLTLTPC
# B1: Pancreatic triacylglycerol lipase (Sus scrofa), P00591 (protein)
# chain: T1 sequence (whole entry)
# What was measured:
# [1] = target: T1, Pancreatic triacylglycerol lipase (Sus scrofa); assay: Inhibition of porcine pancreatic lipase using tributyrin as substrate preincubated for 30 mins measured at 1 min time interval for 5 mins in presence of NaTDC in reaction mixture by pH-Stat method
# [2] = target: T2, Pancreatic triacylglycerol lipase; assay: Competitive inhibition of porcine pancreatic lipase 4-nitrophenyl butyrate substrate preincubated for 30 mins followed by substrate addition measured after 5 mins by Dixon plot method
# [3] = target: T2, Pancreatic triacylglycerol lipase; assay: Inhibition of porcine pancreatic lipase assessed as reduction in 4-nitrophenol formation from 4-nitrophenyl butyrate substrate preincubated for 30 mins followed by substrate addition measured after 5 mins by spectrophotometer
# [4] = target: T1, Pancreatic triacylglycerol lipase (Sus scrofa); assay: Inhibition of porcine pancreatic lipase using tributyrin as substrate incubated for 30 mins measured at 1 min time interval for 5 mins in presence of NaTDC in incubation medium by pH-Stat method
# [5] = target: T3, Pancreatic triacylglycerol lipase; assay: Inhibition of pancreatic lipase (unknown origin)
# [6] = compound: COc1cc(NC(=O)C(=O)c2ccc3[nH]c4ccccc4c3c2)cc(OC)c1OC; assay: (§1) Competitive inhibition of porcine pancreatic lipase assessed as enzyme Vmax in presence of varying levels of 4-nitophenyl butyrate by Lineweaver-burk plot method; settings: Sus scrofa
# [7] = compound: COc1ccc(NC(=O)C(=O)c2ccc3c(c2)c2ccccc2n3Cc2ccc(Cl)cc2)cc1OC; assay: as §1; settings: Sus scrofa
# [8] = compound: CCCCCCCCCCC[C@@H](C[C@@H]1OC(=O)[C@H]1CCCCCC)OC(=O)[C@H](CC(C)C)NC=O; assay: as §1; settings: Sus scrofa
# [9] = compound: COc1cc(NC(=O)C(=O)c2ccc3c(c2)c2ccccc2n3Cc2ccc(Cl)cc2)cc(OC)c1OC; assay: as §1; settings: Sus scrofa
# [10] = compound: COc1cc(NC(=O)C(=O)c2ccc3[nH]c4ccccc4c3c2)cc(OC)c1OC; assay: (§2) Competitive inhibition of porcine pancreatic lipase assessed as enzyme Km at 10 uM in presence of varying levels of 4-nitophenyl butyrate by Lineweaver-burk plot method; settings: Sus scrofa
# [11] = compound: COc1ccc(NC(=O)C(=O)c2ccc3c(c2)c2ccccc2n3Cc2ccc(Cl)cc2)cc1OC; assay: as §2; settings: Sus scrofa
# [12] = compound: CCCCCCCCCCC[C@@H](C[C@@H]1OC(=O)[C@H]1CCCCCC)OC(=O)[C@H](CC(C)C)NC=O; assay: as §2; settings: Sus scrofa
# [13] = compound: COc1cc(NC(=O)C(=O)c2ccc3c(c2)c2ccccc2n3Cc2ccc(Cl)cc2)cc(OC)c1OC; assay: as §2; settings: Sus scrofa
# [14] = compound: COc1cc(NC(=O)C(=O)c2ccc3[nH]c4ccccc4c3c2)cc(OC)c1OC; assay: (§3) Competitive inhibition of porcine pancreatic lipase assessed as enzyme Km at 5 uM in presence of varying levels of 4-nitophenyl butyrate by Lineweaver-burk plot method; settings: Sus scrofa
# [15] = compound: COc1ccc(NC(=O)C(=O)c2ccc3c(c2)c2ccccc2n3Cc2ccc(Cl)cc2)cc1OC; assay: as §3; settings: Sus scrofa
# [16] = compound: CCCCCCCCCCC[C@@H](C[C@@H]1OC(=O)[C@H]1CCCCCC)OC(=O)[C@H](CC(C)C)NC=O; assay: as §3; settings: Sus scrofa
# [17] = compound: COc1cc(NC(=O)C(=O)c2ccc3c(c2)c2ccccc2n3Cc2ccc(Cl)cc2)cc(OC)c1OC; assay: as §3; settings: Sus scrofa
# [18] = compound: COc1cc(NC(=O)C(=O)c2ccc3[nH]c4ccccc4c3c2)cc(OC)c1OC; assay: (§4) Competitive inhibition of porcine pancreatic lipase assessed as enzyme Km at 20 uM in presence of varying levels of 4-nitophenyl butyrate by Lineweaver-burk plot method; settings: Sus scrofa
# [19] = compound: COc1ccc(NC(=O)C(=O)c2ccc3c(c2)c2ccccc2n3Cc2ccc(Cl)cc2)cc1OC; assay: as §4; settings: Sus scrofa
# [20] = compound: CCCCCCCCCCC[C@@H](C[C@@H]1OC(=O)[C@H]1CCCCCC)OC(=O)[C@H](CC(C)C)NC=O; assay: as §4; settings: Sus scrofa
# [21] = compound: COc1cc(NC(=O)C(=O)c2ccc3c(c2)c2ccccc2n3Cc2ccc(Cl)cc2)cc(OC)c1OC; assay: as §4; settings: Sus scrofa
molecule,measurement,setting,value
COc1ccc(NC(=O)C(=O)c2ccc3c(c2)c2ccccc2n3Cc2ccc(Cl)cc2)cc1OC,XI50,[1],21.9
same,Ki,[2],17.5 µM
same,IC50,[3],6.31 µM
same,inhibition,[4],Active
COc1cccc(NC(=O)C(=O)c2ccc3c(c2)c2ccccc2n3Cc2ccc(Cl)cc2)c1,IC50,[3],26.6 µM
COc1ccc2[nH]c3c4c(c(C)cc3c2c1)OC(C)(C)C=C4 [KOENIMBINE],IC50,[5],169 µM
Cc1cnc(NC(=O)C(=O)c2ccc3c(c2)c2ccccc2n3Cc2ccc(Cl)cc2)s1,IC50,[3],32.8 µM
O=C(Nc1ccccc1)C(=O)c1ccc2[nH]c3ccccc3c2c1,IC50,[3],29.7 µM
O=C(Nc1ccc(F)cc1)C(=O)c1ccc2c(c1)c1ccccc1n2Cc1ccc(Cl)cc1,IC50,[3],28 µM
CCCCCCCCCCC[C@@H](C[C@@H]1OC(=O)[C@H]1CCCCCC)OC(=O)[C@H](CC(C)C)NC=O,XI50,[1],3.14
CCn1c2ccccc2c2cc(C(=O)C(=O)Nc3ccccc3)ccc21,IC50,[3],24.2 µM
O=C(Nc1ccncc1)C(=O)c1ccc2c(c1)c1ccccc1n2Cc1ccc(Cl)cc1,IC50,[3],19.9 µM
COc1cccc(NC(=O)C(=O)c2ccc3[nH]c4ccccc4c3c2)c1,IC50,[3],33 µM
Cc1ccc(NC(=O)C(=O)c2ccc3c(c2)c2ccccc2n3Cc2ccc(Cl)cc2)cc1,IC50,[3],13.5 µM
COc1ccc(NC(=O)C(=O)c2ccc3[nH]c4ccccc4c3c2)cc1OC,IC50,[3],44.1 µM
CCn1c2ccccc2c2cc(C(=O)C(=O)Nc3ccc(OC)c(OC)c3)ccc21,IC50,[3],16.4 µM
COc1cc2[nH]c3c4c(c(C)cc3c2cc1OC)OC(C)(C)C=C4,IC50,[5],429 µM
O=C(Nc1ccccc1)C(=O)c1ccc2c(c1)c1ccccc1n2Cc1ccc(Cl)cc1,IC50,[3],13.9 µM
CCn1c2ccccc2c2cc(C(=O)C(=O)Nc3ccc4ncccc4c3)ccc21,IC50,[3],15.5 µM
COc1cc(NC(=O)C(=O)c2ccc3[nH]c4ccccc4c3c2)cc(OC)c1OC,XI50,[1],26.2
same,Ki,[2],21.6 µM
same,IC50,[3],9.58 µM
same,inhibition,[4],Active
COc1ccc(NC(=O)C(=O)c2ccc3[nH]c4ccccc4c3c2)cc1,IC50,[3],19.3 µM
COc1ccc(NC(=O)C(=O)c2ccc3c(c2)c2ccccc2n3Cc2ccc(Cl)cc2)cc1,IC50,[3],14.8 µM
CN(C)c1ccc(NC(=O)C(=O)c2ccc3c(c2)c2ccccc2n3Cc2ccc(Cl)cc2)cc1,IC50,[3],14.8 µM
O=C(Nc1ccc2ncccc2c1)C(=O)c1ccc2c(c1)c1ccccc1n2Cc1ccc(Cl)cc1,IC50,[3],23 µM
Cn1c2ccccc2c2cc(C(=O)C(=O)Nc3ccccc3)ccc21,IC50,[3],36.2 µM
COc1cc(NC(=O)C(=O)c2ccc3c(c2)c2ccccc2n3C)cc(OC)c1OC,IC50,[3],23.1 µM
CCn1c2ccccc2c2cc(C(=O)C(=O)Nc3ccc(N(C)C)cc3)ccc21,IC50,[3],56.2 µM
O=C(Nc1ccncc1)C(=O)c1ccc2[nH]c3ccccc3c2c1,IC50,[3],29.4 µM
CCn1c2ccccc2c2cc(C(=O)C(=O)Nc3cc(OC)c(OC)c(OC)c3)ccc21,IC50,[3],11.4 µM
COc1cc(NC(=O)C(=O)c2ccc3c(c2)c2ccccc2n3Cc2ccc(Cl)cc2)cc(OC)c1OC,XI50,[1],21.9
same,Ki,[2],19.6 µM
same,IC50,[3],8.72 µM
same,inhibition,[4],Active
CC(C)=CCCC1(C)C=Cc2c(c(C)cc3c2[nH]c2ccccc23)O1 (stereo not drawn) [MAHANIMBINE],IC50,[5],17.9 µM
B1,Vmax,[6],15 µM/min
same,Vmax,[7],15.2 µM/min
same,Vmax,[8],15.2 µM/min
same,Vmax,[9],15.5 µM/min
same,Km,[10],151 µM
same,Km,[11],156 µM
same,Km,[12],228 µM
same,Km,[13],152 µM
same,Km,[14],123 µM
same,Km,[15],129 µM
same,Km,[16],197 µM
same,Km,[17],126 µM
same,Km,[18],163 µM
same,Km,[19],179 µM
same,Km,[20],253 µM
same,Km,[21],165 µM
